Assay results published in ChEMBL document CHEMBL1136128, “3-(2-Benzyloxyphenyl)isoxazoles and isoxazolines: synthesis and evaluation as CFTR activators” (Bioorg Med Chem Lett, 2003).

What follows are compounds tested against Cystic fibrosis transmembrane conductance regulator (Rattus norvegicus) (UniProt P34158) (assay: Percent activity against CFTR (cystic fibrosis transmembrane conductance regulator) in rat relative to UCCF-152(50 uM)).
Chain of Cystic fibrosis transmembrane conductance regulator (Rattus norvegicus) (P34158 whole entry): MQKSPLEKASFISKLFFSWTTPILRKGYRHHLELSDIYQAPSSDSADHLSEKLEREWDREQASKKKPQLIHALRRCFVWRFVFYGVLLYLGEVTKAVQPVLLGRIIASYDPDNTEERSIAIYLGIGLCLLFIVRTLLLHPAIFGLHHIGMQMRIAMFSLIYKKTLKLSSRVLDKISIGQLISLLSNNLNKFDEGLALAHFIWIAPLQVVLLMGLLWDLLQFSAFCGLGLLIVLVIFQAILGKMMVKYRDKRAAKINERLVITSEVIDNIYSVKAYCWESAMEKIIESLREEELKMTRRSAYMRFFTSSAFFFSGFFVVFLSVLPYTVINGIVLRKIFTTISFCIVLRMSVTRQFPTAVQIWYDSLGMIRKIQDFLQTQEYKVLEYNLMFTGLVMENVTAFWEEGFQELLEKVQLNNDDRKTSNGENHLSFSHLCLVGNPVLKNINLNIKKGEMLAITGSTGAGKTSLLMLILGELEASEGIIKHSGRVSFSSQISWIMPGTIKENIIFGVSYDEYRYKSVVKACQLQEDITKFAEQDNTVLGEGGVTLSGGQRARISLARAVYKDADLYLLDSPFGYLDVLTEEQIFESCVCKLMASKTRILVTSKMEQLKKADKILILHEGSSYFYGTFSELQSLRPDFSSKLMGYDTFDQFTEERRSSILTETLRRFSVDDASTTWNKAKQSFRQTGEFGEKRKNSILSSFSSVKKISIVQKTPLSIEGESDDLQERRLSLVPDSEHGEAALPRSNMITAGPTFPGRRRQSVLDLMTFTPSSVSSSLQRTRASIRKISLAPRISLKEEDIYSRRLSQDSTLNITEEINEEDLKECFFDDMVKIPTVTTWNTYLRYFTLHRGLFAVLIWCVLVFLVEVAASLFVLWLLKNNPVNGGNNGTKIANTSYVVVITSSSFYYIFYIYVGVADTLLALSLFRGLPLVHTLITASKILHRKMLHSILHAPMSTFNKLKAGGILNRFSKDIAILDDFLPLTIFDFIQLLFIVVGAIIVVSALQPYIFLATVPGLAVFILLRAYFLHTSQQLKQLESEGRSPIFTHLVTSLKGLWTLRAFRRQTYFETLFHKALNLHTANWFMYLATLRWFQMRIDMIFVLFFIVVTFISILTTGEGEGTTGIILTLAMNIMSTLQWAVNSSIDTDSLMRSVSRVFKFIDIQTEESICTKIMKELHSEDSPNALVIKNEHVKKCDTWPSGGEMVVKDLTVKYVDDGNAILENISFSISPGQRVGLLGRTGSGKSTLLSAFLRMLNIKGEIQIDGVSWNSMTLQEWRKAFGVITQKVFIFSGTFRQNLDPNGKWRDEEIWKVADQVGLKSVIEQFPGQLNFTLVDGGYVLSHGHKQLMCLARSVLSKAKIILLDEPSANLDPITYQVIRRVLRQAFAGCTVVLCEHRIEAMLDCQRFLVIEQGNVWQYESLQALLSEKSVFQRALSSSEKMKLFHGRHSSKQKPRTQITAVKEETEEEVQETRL

Row | Structure (SMILES) | Activity [%]
1 | COc1ccccc1-c1cc(CCl)on1 | 8
2 | COC(=O)c1onc(-c2ccccc2OCc2ccc(Br)cc2)c1C(=O)OC | 21
3 | COc1cccc(COc2ccccc2-c2cc(CCO)on2)c1 | 31
4 | COC(=O)C1CC(c2ccccc2OCc2cccc(OC)c2)=NO1 (configuration not stated) | 29
5 | COc1ccc(COc2ccccc2C2=NOC(CO)C2)cc1 (configuration not stated) | 63
6 | COC(=O)C1CC(c2ccccc2OCc2ccc(Br)cc2)=NO1 (configuration not stated) | 48
7 | COc1ccc(COc2ccccc2C2=NOC(CCl)C2)cc1 (configuration not stated) | 61
8 | COc1ccccc1-c1cc(CO)on1 | 22
9 | COC(=O)C1CC(c2ccccc2OCc2ccc(OC)cc2)=NO1 (configuration not stated) | 64
10 | COc1cccc(COc2ccccc2C2=NOC(CO)C2)c1 (configuration not stated) | 29
11 | COC(=O)C1CC(c2cc(Br)ccc2OCc2ccc(OC)cc2)=NO1 (configuration not stated) | 41
12 | COC(=O)c1cc(-c2ccccc2OCc2ccc(Br)cc2)no1 | 32
13 | COc1ccc(COc2ccc(Br)cc2-c2cc(CO)on2)cc1 | 30
14 | COc1cccc(COc2ccccc2C2=NOC(CCl)C2)c1 (configuration not stated) | 58
15 | COc1cccc(COc2ccccc2-c2cc(CO)on2)c1 | 45
16 | OCCc1cc(-c2ccccc2OCc2ccc(Br)cc2)no1 | 106

Other lines, results leading:

Row | Activity [%] | Structure (SMILES)
17 | 8 | CCCCc1cc(-c2ccccc2OCc2ccc(OC)cc2)no1
18 | 10 | COCc1cc(-c2ccccc2OCc2ccc(Br)cc2)no1
19 | 25 | ClCc1cc(-c2ccccc2OCc2ccc(Br)cc2)no1
20 | 39 | OCc1cc(-c2ccccc2OCc2ccc(Br)cc2)no1
21 | 72 | COc1ccc(COc2ccccc2-c2cc(CCl)on2)cc1
22 | 46 | COc1ccc(COc2ccccc2-c2cc(CCO)on2)cc1
23 | 3 | COc1ccc(COc2ccc(-c3cc(CCl)on3)cc2)cc1
24 | 2 | COc1ccc(COc2cccc(-c3cc(CCl)on3)c2)cc1
25 | 9 | COc1ccc(COc2ccc(Br)cc2-c2cc(CCl)on2)cc1
26 | 45 | COc1ccc(COc2ccccc2-c2cc(CO)on2)cc1

What follows are compounds tested against Cystic fibrosis transmembrane conductance regulator (Rattus norvegicus) (UniProt P34158) (assay: Percent activity against CFTR (cystic fibrosis transmembrane conductance regulator) in rat relative to genistein(50 uM)).

Row | Activity [%] | Structure (SMILES)
27 | 55 | ClCc1cc(-c2ccccc2OCc2ccccc2)no1
